Results as given in patent US8822519B2, “Compound with agitation effect on peroxisome proliferator-activated receptor process for its preparation and use thereof” (Zhejiang Hisun Pharmaceutical Co., Ltd., priority 2008, dated 2014).
Values belong to the compound of their own block, whether it stands above or below them.

What was measured:
PPARδ = target: T1, PPARδ (Homo sapiens, UniProt Q03181); test: In vitro screening of nuclear receptor agonist: luciferase reporter gene assay in HepG2 cells; format: cell-based; details: RXR/PPARδ luciferase reporter gene, 24 h treatment
T1 construct: expressed in transfected cells; host or cells: HepG2 (human hepatocarcinoma, ATCC)
T1 sequence (Q03181 1-441): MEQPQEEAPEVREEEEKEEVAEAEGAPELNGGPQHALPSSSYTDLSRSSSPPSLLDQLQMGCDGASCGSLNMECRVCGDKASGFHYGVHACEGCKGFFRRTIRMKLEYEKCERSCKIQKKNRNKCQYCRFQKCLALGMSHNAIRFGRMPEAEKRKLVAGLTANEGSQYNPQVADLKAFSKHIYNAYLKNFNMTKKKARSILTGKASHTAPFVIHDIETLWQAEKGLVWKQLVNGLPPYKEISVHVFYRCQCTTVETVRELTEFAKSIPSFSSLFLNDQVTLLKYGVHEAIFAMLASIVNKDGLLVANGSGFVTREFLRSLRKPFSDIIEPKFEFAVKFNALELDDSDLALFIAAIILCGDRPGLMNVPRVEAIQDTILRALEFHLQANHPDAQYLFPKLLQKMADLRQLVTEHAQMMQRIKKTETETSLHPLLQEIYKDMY
T1 sequence (P19793 1-462 partner): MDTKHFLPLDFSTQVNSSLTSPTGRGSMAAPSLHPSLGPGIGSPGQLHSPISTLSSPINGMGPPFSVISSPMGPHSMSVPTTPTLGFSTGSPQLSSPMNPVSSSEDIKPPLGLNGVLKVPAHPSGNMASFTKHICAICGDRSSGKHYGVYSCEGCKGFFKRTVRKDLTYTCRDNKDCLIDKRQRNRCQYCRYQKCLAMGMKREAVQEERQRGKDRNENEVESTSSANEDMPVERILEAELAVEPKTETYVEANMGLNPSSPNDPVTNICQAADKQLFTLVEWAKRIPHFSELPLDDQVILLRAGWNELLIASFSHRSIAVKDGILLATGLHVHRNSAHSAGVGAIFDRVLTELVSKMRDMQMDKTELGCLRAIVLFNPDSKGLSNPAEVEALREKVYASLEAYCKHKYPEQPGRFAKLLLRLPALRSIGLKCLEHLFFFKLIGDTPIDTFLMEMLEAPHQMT
Source text: Using a reporter gene protocol, the screening model for screening a nuclear receptor agonist in a living cell is designed on a basis of the principal that an activated nuclear receptor can activate transcription of its downstream gene. A reporter gene plasmid is constructed, in which the DNA binding sequence for the nuclear receptor (NRE) is inserted upstream of the luciferase gene, so that the expression of the luciferase gene is placed under the control of the nuclear receptor. Then, the reporter gene plasmid and the nuclear receptor are simultaneously transferred into a cell, and the nuclear receptor is activated when the nuclear receptor agonist is present in the cell culture medium. Then the activated receptor is able to induce the expression of the luciferase gene, while the amount of the luciferase can be determined through its luminous substrate. In this way, the intensity of activation by the compound on the nuclear receptor could be known by observing the luminescence intensity.
The specific operation is described as follows:
The experiment reagents: the compounds to be tested (20 mM, in DMSO, stored at −80° C.).
The hepatocarcinoma cell HepG2 (from ATCC, American Type Culture Collection) was cultured in DMEM medium supplemented with 10% heat-inactivated fetal bovine serum (FBS, Invitogen, Grand Island, N.Y., USA) in a T-75 culture bottle (Greiner, Germany) in a incubator at 37° C., the relative humidity of 100%, and 5% CO2. When the cell culture in the culture bottle reached 80-90% confluency, it was digested with 0.25% Trypsin (with EDTA) for 3 min and inoculated into a 96-well cell culture plate at an inoculating density of 2000 cells/100 μl/well.
In the next day, when the cells in the 96-well culture plate grew up to 50-80% confluency, cell transfection was performed. The cell co-transfection system comprised the FuGene6 transfection agent (Roche Molecular Biochemicals, Indianapolis, Ind., U.S.A.) and 60 ng DNA (long of hRXR, 10 ng of pCMV βGal, 10 ng of the nuclear receptor expression plasmid RXR/PPARδ, 30 ng of GFP fluorescence reporter gene plasmid, respectively).
The cell culture medium was discarded immediately at 24 hours post-transfection and replaced by 200 μl of a fresh DMEM medium containing the medicament to be tested (with 10% FBS treated by activated carbon).
24 h after treatment with the medicament, the cells were lysed with a lysis solution (Cell Culture Lysis buffer, Promega) and centrifuged, and the supernatant was collected. The supernatant was treated with a fluorescence detection kit (Promega) and counted by a fluorescence meter (Ascent Fluoroskan FL reader, Thermo Labsystems, Finland), and the relative intensity of the luciferase was determined. For assaying the β-galactosidase activity used in the experiment as the inner reference (the inner reference calibrating for the transfection efficiency), 50 μl of the supernatant was transferred into a fresh microplate and treated with the Promega kit and read at a wavelength of 405 nm from a microplate reader (Bio-tech Instruments Inc., Winooski, Vt., USA) (Sauerberg, P.; Olsen, G. S.; Jeppesen, L.; Mogensen, J. P. et al., J. Med. Chem., 2007, 50, 1495-1503).
The median effective concentration (EC50) of a sample is a concentration at which the sample has 50% pharmacological effect. This value is one of the important parameters for evaluating pharmacological effects of a compound. In the present screening process, the EC50 of a sample was calculated according to the activation of the receptor by the sample at six different concentrations.

[1] = tested on: high fat fodder obese C57BL/6J mice; test: High fat fodder obese mice: body weight and food intake; format: in vivo
Source text: (§1) 3 week-old male C57BL/6J mice were chosen as experiment animals, 15 of which were randomly selected to feed with a standard fodder, and the remains were allowed to feed with a high fat fodder, with each of the mice being marked by ear-cutting. The body weights and fodder intake of the mice were weighed every week. […] After the administration of the inventive compounds for four weeks, the effects of the medicaments on the levels of blood lipid and blood glucose, body weight, and fodder intake in the animals were observed, while a glucose tolerance test was performed to investigate the effects of the medicaments on the glucose tolerance in the animals.

[2] = tested on: high fat fodder obese C57BL/6J mice; test: High fat fodder obese mice: levels of blood lipid and blood glucose; format: in vivo; parameters: HDL / GLU / TC / TG: unit not given here; details: mean ± s, n 5
Source text: as §1, with “[…],” for “After the administration of the inventive compounds for four weeks,”

[3] = 2 weeks administration, 10 mg/kg
[4] = 2 weeks administration, 30 mg/kg
[5] = 4 weeks administration, 10 mg/kg
[6] = 4 weeks administration, 30 mg/kg

EC50 (PPARδ): 100 nM
SMILES: Cc1cc(SC(c2ccccc2)c2nn(-c3ccc(C(F)(F)F)cc3)c(=O)n2C)c(C)cc1OCC(=O)O (stereo not drawn) [Compound A-10, 2-(2,5-dimethyl-4-(1-(3-(4-methyl-5-oxo-1-(4-trifluoromethyl-phenyl)-4,5-dihydrogen-1H-1,2,4-triazolyl))-benzylthio)-phenoxy)-acetic acid]

EC50 (PPARδ): 650 nM
SMILES: Cc1cc(SCC(=O)O)ccc1OCc1nn(-c2ccc(C(F)(F)F)cc2)c(=O)n1C [Compound A-12, 2-(3-methyl-4-(3-(4-methyl-5-oxo-1-(4-trifluoromethyl-phenyl)-4,5-dihydrogen-1H-1,2,4-triazolyl)-methoxy)-phenylthio)-acetic acid]

SMILES: CCCCCCCCCCC[C@@H](C[C@@H]1OC(=O)[C@H]1CCCCCC)OC(=O)[C@H](CC(C)C)NC=O [Orlistat, reference compound]
Food intake ([1]; column 1, 10 mg/kg): 5.88 g | Food intake ([1]; column 1, 30 mg/kg): 6.04 g | Food intake ([1]; column 2, 10 mg/kg): 5.42 g | Food intake ([1]; column 2, 30 mg/kg): 4.66 g | Food intake ([1]; column 3, 10 mg/kg): 6.7 g | Food intake ([1]; column 3, 30 mg/kg): 5.52 g | Food intake ([1]; column 4, 10 mg/kg): 6.64 g | Food intake ([1]; column 4, 30 mg/kg): 7.78 g | Food intake ([1]; column 5, 10 mg/kg): 6.4 g | Food intake ([1]; column 5, 30 mg/kg): 7.92 g | GLU [2, 3]: 11.11 ± 1.08 | HDL [2, 3]: 3.29 ± 0.27 | TC [2, 3]: 3.81 ± 2.56 | TG [2, 3]: 0.36 ± 0.09 | GLU [2, 4]: 8.81 ± 2.16 | HDL [2, 4]: 2.72 ± 0.3 | TC [2, 4]: 3.89 ± 0.44 | TG [2, 4]: 0.45 ± 0.09 | GLU [2, 5]: 11.05 ± 1.09 | HDL [2, 5]: 2.63 ± 1.27 | TC [2, 5]: 4.24 ± 0.33 | TG [2, 5]: 0.28 ± 0.03 | GLU [2, 6]: 9.84 ± 1.83 | HDL [2, 6]: 2.79 ± 0.35 | TC [2, 6]: 3.48 ± 0.54 | TG [2, 6]: 0.41 ± 0.04

EC50 (PPARδ): 380 nM
SMILES: Cc1cc(OCC(=O)O)ccc1SC(c1ccccc1)c1nn(-c2ccc(C(F)(F)F)cc2)c(=O)n1C (stereo not drawn) [Compound A-7, 2-(3-methyl-4-(1-(3-(4-methyl-5-oxo-1-(4-trifluoromethyl-phenyl)-4,5-dihydrogen-1H-1,2,4-triazolyl))-benzylthio)-phenoxy)-acetic acid]

EC50 (PPARδ): 340 nM
SMILES: CCc1cc(OC(c2ccccc2)c2nn(-c3ccc(C(F)(F)F)cc3)c(=O)n2C)ccc1OCC(=O)O (stereo not drawn) [Compound A-5, 2-(2-ethyl-4-(1-(3-(4-methyl-5-oxo-1-(4-trifluoromethyl-phenyl)-4,5-dihydrogen-1H-1,2,4-triazolyl))-benzyloxy)-phenoxy)-acetic acid]

EC50 (PPARδ): 100 nM
SMILES: Cc1cc(OC(c2ccccc2)c2nn(-c3ccc(C(F)(F)F)cc3)c(=O)n2C)ccc1SCC(=O)O (stereo not drawn) [Compound A-2, 2-(2-methyl-4-(1-(3-(4-methyl-5-oxo-1-(4-trifluoromethyl-phenyl)-4,5-dihydrogen-1H-1,2,4-triazolyl))-benzyloxy)-phenylthio)-acetic acid]

EC50 (PPARδ): 6610 nM
SMILES: Cc1cc(OCc2nn(-c3ccc(C(F)(F)F)cc3)c(=O)n2C)ccc1OCC(=O)O [Compound A-9, 2-(2-methyl-4-(3-(4-methyl-5-oxo-1-(4-trifluoromethyl-phenyl)-4,5-dihydrogen-1H-1,2,4-triazolyl)-methoxy)-phenoxy)-acetic acid]

EC50 (PPARδ): < 1 nM
SMILES: CCCCn1c(C(Sc2ccc(OC(C)(C)C(=O)O)c(C)c2)c2ccccc2)nn(-c2ccc(C(F)(F)F)cc2)c1=O (stereo not drawn) [Compound A-18]

EC50 (PPARδ): 1 nM
SMILES: Cc1cc(SC(c2ccccc2)c2nn(-c3ccc(C(F)(F)F)cc3)c(=O)n2C)ccc1OC(C)(C)C(=O)O (stereo not drawn) [Compound A-16, 2,2-dimethyl-2-(2-methyl-4-(1-(3-(4-methyl-5-oxo-1-(4-trifluoromethyl-phenyl)-4,5-dihydrogen-1H-1,2,4-triazolyl))-benzylthio)-phenoxy)-acetic acid]

EC50 (PPARδ): < 1 nM
SMILES: CCc1cc(SC(c2ccccc2)c2nn(-c3ccc(C(F)(F)F)cc3)c(=O)n2C)ccc1OCC(=O)O (stereo not drawn) [Compound A-14, 2-(2-ethyl-4-(1-(3-(4-methyl-5-oxo-1-(4-trifluoromethyl-phenyl)-4,5-dihydrogen-1H-1,2,4-triazolyl))-benzylthio)-phenoxy)-acetic acid]

EC50 (PPARδ): 10 nM
SMILES: Cc1cc(SC(c2ccccc2)c2nn(-c3ccc(C(F)(F)F)cc3)c(=O)n2C)ccc1OCC(=O)O (stereo not drawn) [Compound A-4, 2-(2-methyl-4-(1-(3-(4-methyl-5-oxo-1-(4-trifluoromethyl-phenyl)-4,5-dihydrogen-1H-1,2,4-triazolyl))-benzylthio)-phenoxy)-acetic acid]

EC50 (PPARδ): 20 nM
SMILES: Cc1cc(SC(C)(C)C(=O)O)ccc1OC(c1ccccc1)c1nn(-c2ccc(C(F)(F)F)cc2)c(=O)n1C (stereo not drawn) [Compound A-15, 2,2-dimethyl-2-(3-methyl-4-(1-(3-(4-methyl-5-oxo-1-(4-trifluoromethyl-phenyl)-4,5-dihydrogen-1H-1,2,4-triazolyl))-benzyloxy)-phenylthio)-acetic acid]

EC50 (PPARδ): < 1 nM
SMILES: CCCCn1c(C(Oc2ccc(SCC(=O)O)cc2C)c2ccccc2)nn(-c2ccc(C(F)(F)F)cc2)c1=O (stereo not drawn) [Compound A-17, 2-(3-methyl-4-(1-(3-(4-n-butyl-5-oxo-1-(4-trifluoromethyl-phenyl)-4,5-dihydrogen-1H-1,2,4-triazolyl))-benzyloxy)-phenylthio)-acetic acid]

EC50 (PPARδ): 2090 nM
SMILES: Cc1cc(OCC(=O)O)ccc1OC(c1ccccc1)c1nn(-c2ccc(C(F)(F)F)cc2)c(=O)n1C (stereo not drawn) [Compound A-6, 2-(3-methyl-4-(1-(3-(4-methyl-5-oxo-1-(4-trifluoromethyl-phenyl)-4,5-dihydrogen-1H-1,2,4-triazolyl))-benzyloxy)-phenoxy)-acetic acid]
